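Grown in 96-well plates, cells were treated for 48 hours with each compound at five concentrations. Insufficient inhibition: endpoint recorded as highest concentration tested. The concentration for 50% growth inhibition is given as GI50.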 Calls of active or inactive are those of the source. Rule as the data show it: active = GI50 up to about 1.1 µM and inactive = higher.

Among the test systems are COLO 205; EKVX; HT-29; Hs-578T; IGROV-1; MOLT-4; Malme-3M; NCI-H23; NCI-H522; OVCAR-3; OVCAR-5; RPMI-8226; RXF 393; SK-MEL-28; SNB-19; T47D; UACC-257; UACC-62; CCRF-CEM; A498.
Common to all, as to experiment: inhibition of tumour cell growth, NCI panel, 48 h

Consider `O=C(O)/C=C/C(=O)N1Cc2cc3ccccc3nc2C1`, for which the GI50 in the assay with COLO 205, with EKVX, in the assay with HT-29, in the assay on Hs-578T, in the assay with IGROV-1 and with MOLT-4 was > 100 µM (inactive) in each case. Further, the GI50 in the assay with Malme-3M, in the assay with NCI-H23, with NCI-H522, in the assay on OVCAR-3, with OVCAR-5 and with RPMI-8226 was > 100 µM (inactive) throughout. For the same compound, the GI50 in the assay on RXF 393, in the assay on SK-MEL-28, in the assay on SNB-19, in the assay on T47D, in the assay on UACC-257 and in the assay on UACC-62 was > 100 µM (inactive) each time.
With `CC1=CC(=O)C(=C(C)C)CC1`, the GI50 is 28.9 µM (inactive) with CCRF-CEM; > 10 µM (inactive) in the assay on COLO 205; > 100 µM (inactive) with EKVX; > 100 µM (inactive) with HT-29; > 100 µM (inactive) with Hs-578T; > 100 µM (inactive) with IGROV-1. The GI50 with MOLT-4, with Malme-3M, with NCI-H23, with NCI-H522, in the assay with OVCAR-3 and in the assay with OVCAR-5 was > 100 µM (inactive) in each case. The GI50 in the assay on RXF 393 is 26.1 µM (inactive); in the assay with SK-MEL-28, > 100 µM (inactive); in the assay with SNB-19, > 100 µM (inactive); with T47D, > 100 µM (inactive); with UACC-257 it was > 100 µM (inactive); with UACC-62, > 100 µM (inactive).
As to `COC(=O)C1=C(CCC[C@H](C)O[Si](C)(C)C(C)(C)C)NC(=O)N2[C@@H](CCO)CC[C@H]12`, the GI50 with A498 was 16.6 µM (inactive); in the assay on COLO 205, 17.6 µM (inactive); in the assay with EKVX, 12.4 µM (inactive); in the assay on HT-29, 15.4 µM (inactive); in the assay with IGROV-1, 15.8 µM (inactive); in the assay with MOLT-4, 18.6 µM (inactive). Moreover, the GI50 in the assay with Malme-3M was 12.5 µM (inactive); in the assay on NCI-H23, 13.2 µM (inactive); in the assay with NCI-H522 it was 5.71 µM (inactive); with OVCAR-3, 13.3 µM (inactive); in the assay with OVCAR-5 it was 19.4 µM (inactive); in the assay on RPMI-8226, 14.9 µM (inactive). Also, the GI50 is 12.4 µM (inactive) in the assay on RXF 393; 18.5 µM (inactive) in the assay on SK-MEL-28; 15.2 µM (inactive) in the assay with SNB-19; 11.6 µM (inactive) in the assay with T47D; 11.8 µM (inactive) with UACC-257.
For `C[n+]1cn(-c2nc3ccccc3nc2[N-]S(=O)(=O)c2ccccc2)c2ccccc21`, the GI50 in the assay on CCRF-CEM, in the assay on COLO 205, with EKVX, with HT-29, in the assay on Hs-578T and in the assay on IGROV-1 was > 100 µM (inactive) each time. The GI50 with MOLT-4 is > 100 µM (inactive); in the assay on Malme-3M, > 100 µM (inactive); in the assay with NCI-H23, > 100 µM (inactive); in the assay on NCI-H522 it was 0.222 µM (active); in the assay on OVCAR-3 it was > 100 µM (inactive); with OVCAR-5, > 100 µM (inactive). Further, the GI50 is > 100 µM (inactive) in the assay with RPMI-8226; 62.2 µM (inactive) with RXF 393; > 100 µM (inactive) in the assay on SK-MEL-28; > 100 µM (inactive) with SNB-19; > 100 µM (inactive) with T47D; > 100 µM (inactive) with UACC-257. Also, the GI50 in the assay with UACC-62 was > 100 µM (inactive).
For `CC(C)(C)OC(=O)CN1CCNCCN(CC(=O)OC(C)(C)C)CCNCC1`, the GI50 in the assay with A498 was > 100 µM (inactive); in the assay on CCRF-CEM it was 57 µM (inactive); with COLO 205, > 100 µM (inactive); in the assay with EKVX it was > 100 µM (inactive); in the assay with HT-29, 33.3 µM (inactive); in the assay on Hs-578T, > 100 µM (inactive). Besides, the GI50 is > 100 µM (inactive) in the assay on IGROV-1; 64.7 µM (inactive) in the assay on MOLT-4; > 100 µM (inactive) in the assay on NCI-H522; > 100 µM (inactive) with OVCAR-3; > 100 µM (inactive) in the assay with OVCAR-5; 70 µM (inactive) in the assay with RPMI-8226. Also, the GI50 in the assay with RXF 393, in the assay with SK-MEL-28, with SNB-19, in the assay on UACC-257 and in the assay on UACC-62 was > 100 µM (inactive) throughout.
On to `CC1(c2nc3cc(Cl)c(Cl)cc3[nH]2)CCC(CO)C(C)(C)O1` (configuration not stated), for which the GI50 was 27.9 µM (inactive) in the assay with CCRF-CEM; 25.1 µM (inactive) in the assay with COLO 205; 23 µM (inactive) in the assay with EKVX; 16.4 µM (inactive) with HT-29; 14.8 µM (inactive) in the assay with Hs-578T; 20.9 µM (inactive) with IGROV-1. The GI50 in the assay on MOLT-4 is 24.5 µM (inactive); with Malme-3M, 24.5 µM (inactive); with NCI-H23, 25.6 µM (inactive); in the assay with NCI-H522 it was 6.49 µM (inactive); in the assay with OVCAR-3, 29.5 µM (inactive); with OVCAR-5, 82.2 µM (inactive). Moreover, the GI50 in the assay with RPMI-8226 was 16.9 µM (inactive); with RXF 393 it was 47.4 µM (inactive); in the assay with SK-MEL-28, 24.8 µM (inactive); in the assay with SNB-19 it was 54.1 µM (inactive); with T47D it was 32.3 µM (inactive); in the assay with UACC-257, 29.6 µM (inactive). Besides, the GI50 with UACC-62 is 17.6 µM (inactive).
`CC(=O)N1C(OC(C)C)CC(C)N1c1ccccc1` (configuration not stated): the GI50 with CCRF-CEM, with COLO 205, in the assay on EKVX, in the assay with HT-29, in the assay with Hs-578T and in the assay with IGROV-1 was > 10 µM (inactive) each time. Further, the GI50 in the assay on MOLT-4, in the assay with Malme-3M, in the assay with NCI-H23, in the assay on OVCAR-3, in the assay on OVCAR-5 and in the assay with RPMI-8226 was > 10 µM (inactive) in each case. In addition, the GI50 in the assay with RXF 393, with SK-MEL-28, with SNB-19, in the assay on T47D and with UACC-257 was > 10 µM (inactive) in each case.
As to `CC(=O)OCc1nc(C#N)c(N)o1`, the GI50 with A498, in the assay on CCRF-CEM, in the assay with COLO 205, in the assay with EKVX, in the assay on HT-29 and in the assay on Hs-578T was > 100 µM (inactive) each time. For the same compound, the GI50 with IGROV-1, in the assay with MOLT-4, in the assay with Malme-3M, in the assay on NCI-H23, in the assay with NCI-H522 and in the assay with OVCAR-3 was > 100 µM (inactive) in each case. For the same compound, the GI50 in the assay with OVCAR-5, in the assay with RPMI-8226, in the assay on RXF 393, in the assay on SK-MEL-28, with SNB-19 and with UACC-257 was > 100 µM (inactive) throughout. The GI50 in the assay with UACC-62 was > 100 µM (inactive).
Take `CC(C)(C)OC(=O)NC(Cc1ccc(O)cn1)C(N)=O` (configuration not stated): the GI50 was > 100 µM (inactive) with A498; > 10 µM (inactive) with CCRF-CEM; > 100 µM (inactive) in the assay on COLO 205; > 100 µM (inactive) in the assay with EKVX; > 100 µM (inactive) in the assay with HT-29; > 100 µM (inactive) in the assay with Hs-578T. Moreover, the GI50 in the assay with IGROV-1, in the assay on MOLT-4, in the assay with Malme-3M, in the assay with NCI-H23, with NCI-H522 and in the assay with OVCAR-3 was > 100 µM (inactive) in each case. The GI50 in the assay with OVCAR-5, in the assay with RPMI-8226, in the assay with RXF 393, in the assay on SK-MEL-28, with SNB-19 and in the assay on UACC-257 was > 100 µM (inactive) in each case.
`O=C(Cc1ccccc1)c1ccc2[nH]c(=O)oc2c1`: the GI50 was > 100 µM (inactive) in the assay with A498; > 100 µM (inactive) in the assay with CCRF-CEM; 66.2 µM (inactive) with COLO 205; 12.5 µM (inactive) in the assay with EKVX; 37.5 µM (inactive) in the assay on HT-29; 1.03 µM (active) in the assay with Hs-578T. Further, the GI50 in the assay with IGROV-1 is 9.53 µM (inactive); in the assay with MOLT-4, 31.6 µM (inactive); in the assay on NCI-H23, 51.3 µM (inactive); in the assay with OVCAR-3, 35.2 µM (inactive); with OVCAR-5, > 100 µM (inactive); with RPMI-8226 it was 9.23 µM (inactive). Moreover, the GI50 with RXF 393 is 39.6 µM (inactive); in the assay on SK-MEL-28 it was 28.6 µM (inactive); in the assay with UACC-257, 43.2 µM (inactive); with UACC-62, 58.5 µM (inactive).
In the case of `c1ccc2c(c1)/C(=N\NC1=NCCN1)c1nc3ccccc3nc1-2`, the GI50 in the assay with CCRF-CEM was 3.8 µM (inactive); with COLO 205 it was 2.17 µM (inactive); with EKVX, 12.9 µM (inactive); in the assay with HT-29, 0.521 µM (active); in the assay on Hs-578T, 16.6 µM (inactive); in the assay on IGROV-1, 6.12 µM (inactive). Besides, the GI50 in the assay on MOLT-4 is 1.13 µM (inactive); in the assay on Malme-3M, 10.2 µM (inactive); with NCI-H23 it was 8.73 µM (inactive); with NCI-H522, 2.84 µM (inactive); in the assay on OVCAR-3, 3.24 µM (inactive); in the assay on OVCAR-5 it was 6.64 µM (inactive). Moreover, the GI50 with RPMI-8226 is 1 µM (active); with RXF 393, 2.71 µM (inactive); in the assay on SK-MEL-28 it was 13.5 µM (inactive); with SNB-19, 6.44 µM (inactive); in the assay on T47D it was 19 µM (inactive); in the assay with UACC-257 it was 5.31 µM (inactive). Moreover, the GI50 with UACC-62 is 2.49 µM (inactive).

Values taken from ChEMBL document CHEMBL1201862, “PubChem BioAssay data set” (2004).
